In ChEMBL document CHEMBL1955774, “Radiosynthesis of [11C]BBAC and [11C]BBPC as potential PET tracers for orexin2 receptors” (Bioorg Med Chem Lett, 2012):

Columns and labels:
[1] = Partition coefficient, log P of the compound by shake flask method; assay type: physicochemical; conditions: octanol/water
Brain [2] = assay: Drug uptake in anesthetized rhesus monkey brain at 1.7 ug measured for 122 mins by PET analysis; assay type: ADME, tissue-based, Macaca mulatta; conditions: in vivo
Brain [3] = assay: Drug uptake in anesthetized rhesus monkey brain at 1.5 ug measured for 122 mins by PET analysis; assay type: ADME, tissue-based, Macaca mulatta; conditions: in vivo

Row | logP [1] | Drug uptake (Brain [2]) | Drug uptake (Brain [3]) | SMILES
1 | 2.8 | Not Active | – | [11CH3]n1c(CCC(=O)N2CCC[C@H]2C(=O)Nc2ccccc2-c2ccccc2)nc2ccccc21
2 | 3.4 | – | Not Active | [11CH3]n1c(SCC(=O)N2CCC[C@H]2C(=O)Nc2ccccc2-c2ccccc2)nc2ccccc21
